{"source": "patent US9493524B2", "about": "“Methods for treatment of stroke or cerebrovascular accidents using an ETB receptor agonist” (MIDWESTERN UNIVERSITY, priority 2007, dated 2016)", "tested_on": "urethane anesthetized rat", "experiment": "Arterial blood gas analysis", "assay_type": "in vivo, Sprague-Dawley rats", "conditions": "IRL-1620 5 μg/kg, i.v., ET-1 0.75 μg/kg", "protocol": "Male Sprague-Dawley rats weighing 323±4 grams (g) were anesthetized with urethane (ethyl carbamate, Sigma Aldrich, St. Louis, Mo.) dissolved in isotonic saline (0.9% NaCl, Hospira, Inc., Lake Forest, Ill.). The rats were administered a dose of 0.15 g per 100 g body weight via intraperitoneal (i.p.) injection.\nBlood Gas Analysis: Arterial blood gases were monitored to determine the effects on pH, pCO2, and pO2. Blood was drawn from the arteriole cannula and analyzed using a GEM Premier 3000 unit (Instrument Laboratory, Lexington, Mass.).\nBlood pressure, heart rate, cerebral blood perfusion, and renal blood perfusion all were recorded for 2 hours following the final injection. Blood gases were analyzed prior to administration of any drugs, and at 60 and 120 min following administration of IRL-1620 or ET-1. At the end of each experiment, the animals were euthanized with an overdose of urethane i.v. In the figures, all data values are presented as mean±SEM. One-sample t-tests and one-way ANOVAs were used to test the differences within and between the groups. A P value of P<0.05 was considered significant.", "key": {"[1]": {"conditions": "time 0 min (prior to any drugs)"}}, "note": "Numbered stars: 1 amine (or outer) side, 2 acyl side, 3 side chain; on linkers, the order of the positions; unused ones are H or OH. Peptide text beside a SMILES is read from it. Suc = O=C(CCC(=O)[*:2])[*:1]", "data": [{"smiles": "CC[C@H](C)[C@H](NC(=O)[C@H](CC(=O)O)NC(=O)[C@H](CC(C)C)NC(=O)[C@H](Cc1c[nH]cn1)NC(=O)[C@H](C)NC(=O)[C@H](Cc1ccccc1)NC(=O)[C@H](Cc1ccc(O)cc1)NC(=O)[C@@H](NC(=O)[C@H](C)NC(=O)[C@H](CCC(=O)O)NC(=O)[C@H](CCC(=O)O)NC(=O)[C@H](CC(=O)O)NC(=O)CCC(=O)O)C(C)C)C(=O)N[C@H](C(=O)N[C@@H](Cc1c[nH]c2ccccc12)C(=O)O)[C@@H](C)CC", "note": "[IRL-1620, N-Succinyl-[Glu^9, Ala^11,15]-Endothelin 1 fragment 8-21] (Suc-DEEAVYFAHLDIIW-OH)", "values": [{"measurement": "effect on arterial blood gases (text to Table 2)", "result": "Neither IRL-1620 nor ET-1 significantly affected blood gases"}, {"measurement": "arterial blood pCO2", "setting": "[1]", "result": "42 ± 2"}, {"measurement": "arterial blood pH", "setting": "[1]", "result": "7.32 ± 0.01"}, {"measurement": "arterial blood pO2", "setting": "[1]", "result": "103 ± 3"}, {"measurement": "arterial blood pCO2", "setting": "time 60 min", "result": "46 ± 6"}, {"measurement": "arterial blood pH", "setting": "time 60 min", "result": "7.27 ± 0.01"}, {"measurement": "arterial blood pO2", "setting": "time 60 min", "result": "99 ± 9"}, {"measurement": "arterial blood pCO2", "setting": "time 120 min", "result": "32 ± 3"}, {"measurement": "arterial blood pH", "setting": "time 120 min", "result": "7.29 ± 0.01"}, {"measurement": "arterial blood pO2", "setting": "time 120 min", "result": "113 ± 6"}]}]}
